Assay results reported in US11312722B2, “Hsp90 inhibitors and uses thereof” (TRUSTEES OF BOSTON UNIVERSITY, priority 2019, dated 2022).
Converted amounts (≈) assume the structure as drawn. Like-named read-outs stand apart in the source and are kept apart here.

How the values were obtained:
C. neoformans Hsp90 NBD [1] = target: T1, C. neoformans Hsp90 NBD (Cryptococcus neoformans, UniProt J9VVA4); assay: Protein thermal shift assay, C. neoformans Hsp90 NBD; format: binding; details: equimolar protein and ligand (10 μM)
T1 sequence (J9VVA4 1-699): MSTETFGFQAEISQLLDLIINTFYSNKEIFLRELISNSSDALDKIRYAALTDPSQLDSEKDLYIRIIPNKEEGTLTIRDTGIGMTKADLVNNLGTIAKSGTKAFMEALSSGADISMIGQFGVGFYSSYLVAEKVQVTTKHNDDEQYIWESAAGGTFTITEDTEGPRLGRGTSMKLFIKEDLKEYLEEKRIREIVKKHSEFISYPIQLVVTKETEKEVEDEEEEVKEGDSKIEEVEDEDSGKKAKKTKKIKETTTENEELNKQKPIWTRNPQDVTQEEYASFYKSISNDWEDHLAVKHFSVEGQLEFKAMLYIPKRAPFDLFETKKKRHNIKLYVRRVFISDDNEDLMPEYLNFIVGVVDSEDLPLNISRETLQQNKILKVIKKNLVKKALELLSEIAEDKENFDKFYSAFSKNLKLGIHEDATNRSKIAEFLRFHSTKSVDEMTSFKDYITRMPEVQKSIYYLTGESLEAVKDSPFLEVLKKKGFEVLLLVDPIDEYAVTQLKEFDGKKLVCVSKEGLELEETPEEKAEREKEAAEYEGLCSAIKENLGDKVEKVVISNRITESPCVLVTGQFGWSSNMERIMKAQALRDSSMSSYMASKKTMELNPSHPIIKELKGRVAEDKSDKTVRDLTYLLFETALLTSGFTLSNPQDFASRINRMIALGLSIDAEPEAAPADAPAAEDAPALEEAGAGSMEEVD
Protocol: […]. Using recombinant proteins, assay-independent nanomolar inhibitory constants (Ki) were defined for these compounds. Binding of the compounds to their relevant NBD by thermal shift denaturation assays was also confirmed. Thermal shift assays were performed under saturating ligand conditions, i.e. equimolar concentrations (10 μM) of protein and ligand. As a result, they can provide only qualitative evidence of target binding, but not a quantitative measurement of ligand affinity. […] […]. C. neoformans or C. albicans Hsp90 NBD was combined with equimolar concentrations of the indicated bioactive inhibitors (10 μM) or DMSO control, in technical triplicates. The protein was heated from 25 to 98.6° C. at 0.2° C./5 s in the presence of Sypro Orange dye. All compounds induce an increase in melting temperature relative to the DMSO control, reported as ΔTm.
Protein thermal shift assays. Thermal melting curves were determined using a Protein Thermal Shift Kit (ThermoFisher #4462263), employing a CFX384 Real-Time PCR System (Bio-Rad, C1000 Touch Thermal Cycler). Reactions were performed in a final volume of 10 μL, and contained purified C. albicans or C. neoformans Hsp90 NBD diluted to 250 μg/mL in Buffer HBS-P (GE Healthcare Life Sciences, 0.01 M HEPES pH 7.4, 0.15 M NaCl, 0.005% v/v Surfactant P20) with 10 μM synthetic analog or DMSO control, and 1× Sypro Orange dye solution. Samples were prepared in triplicate in 384-well white plates (Bio-Rad; HSP3805). The instrument was set to melt curve, step 1 (25° C., 2 min) and step 2 (ramp to 98.6° C., increasing 0.2° C. per 5 s cycle). The inflection point of each curve is defined as the protein melting temperature (Tm). Temperature shift, ΔTm, was recorded as the difference between the Tm of the fungal Hsp90 NBD with compound minus Tm of the protein without compound.

[2] = target: Hsp90 (C. albicans whole cell lysate) (Candida albicans (strain SC5314 / ATCC MYA-2876) (Yeast), UniProt P46598); assay: biochemical; format: binding; details: Yes/No call
Outline: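 In this fluorescence polarization competition assay, compound titrations in buffer with 0.1 mg/mL bovine gamma globulin were mixed with fungal whole-cell lysate spiked with 0.1 nM Cy3-geldanamycin probe. Plates were incubated 4.5 h at room temperature. EC50 came from 4-parameter fits of probe displacement, normalized to GdA in the same lysate.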

[3] = tested on: C. neoformans (Strain H99); assay: Antifungal sensitivity testing (MIC), C. neoformans H99; format: cell-based
C. neoformans Hsp90 NBD [4] = target: T1, C. neoformans Hsp90 NBD; assay: biochemical; format: binding; details: SPR, 25° C., read-out: Biacore KD
Protocol: SPR assays. For SPR experiments, Hsp90 NBD expression constructs were modified to encode a C-terminal AviTag™ for site-specific on-column biotinylation with a BirA biotin-ligase kit (Avidity LLC; BirA-500). SPR experiments were performed on a Biacore T200 instrument at 25° C. Biotinylated Hsp90 NBD was diluted to 40 μg/mL and immobilized on a streptavidin chip (Sensor Chip SA, GE Healthcare) at a density of 2000-2500 response units (RU) on the biosensor surface. […] Resulting sensorgrams were analyzed with a fit to a 1:1 binding model, using BIA evaluation software.

[5] = mouse liver microsomes; for % remaining at 15 min (NADPH-free): NADPH-free control; for % remaining at 15 min / % remaining at 60 min: with NADPH
in vitro = details: both, CD-1, mouse; for CLint scaled at 1 μM: liver microsomes; for half-life: microsomes
[6] = Cryptococcus neoformans; read-out: C. neo MIC80
[7] = Cryptococcus neoformans; read-out: C. neo MIC90
[8] = Cryptococcus neoformans, read-out: C. neo MIC80
[9] = Cryptococcus neoformans, read-out: C. neo MIC90

COc1ccc(Cn2nc(-c3ccccc3)cc2Nc2cc(O)cc(O)c2C(=O)N2Cc3ccc(F)cc3C2)cc1 [Compound 29, 4-(5-Fluoro-2,3-dihydro-1H-isoindole-2-carbonyl)-5-((1-((4-methoxyphenyl)methyl)-3-phenyl-1H-pyrazol-5-yl)amino)benzene-1,3-diol]
C. neoformans NBD ΔTm (C. neoformans Hsp90 NBD [1]): 14 °C

COc1ccc(Cn2nc(C(C)(C)C)cc2Nc2cc(O)cc(O)c2C(=O)N2Cc3ccccc3C2)cc1 [Compound 49, (2-((3-(tert-Butyl)-1-(4-methoxybenzyl)-1H-pyrazol-5-yl)amino)-4,6-dihydroxyphenyl)(isoindolin-2-yl)methanone]
C. neoformans NBD ΔTm (C. neoformans Hsp90 NBD [1]): 14 °C

Cn1nc(-c2ccccc2)cc1Nc1cc(O)cc(O)c1C(=O)N1Cc2ccccc2C1 [Compound 91, 4-(2,3-Dihydro-1H-isoindole-2-carbonyl)-5-((1-methyl-3-phenyl-1H-pyrazol-5-yl)amino]benzene-1,3-diol]
C. alb Active (biochemical) [2]: Yes | C. neoformans NBD ΔTm (C. neoformans Hsp90 NBD [1]): 11 °C | MIC80 [3, 6]: > 25 µM | MIC90 [3, 7]: > 25 µM

CC(C)c1cc(Nc2cc(O)cc(O)c2C(=O)N2Cc3ccccc3C2)n(C)n1 [Compound 100, 4-(2,3-Dihydro-1H-isoindole-2-carbonyl)-5-((1-methyl-3-(propan-2-yl)-1H-pyrazol-5-yl)amino)benzene-1,3-diol]
C. neoformans NBD ΔTm (C. neoformans Hsp90 NBD [1]): 11 °C

Cc1ccccc1-c1cc(Nc2cc(O)cc(O)c2C(=O)N2Cc3ccccc3C2)n(C)n1 [Compound 106, 4-(2,3-Dihydro-1H-isoindole-2-carbonyl)-5-((1-methyl-3-(2-methylphenyl)-1H-pyrazol-5-yl)amino)benzene-1,3-diol]
C. alb Active (biochemical) [2]: Yes | C. neoformans NBD ΔTm (C. neoformans Hsp90 NBD [1]): 12 °C | MIC ([3]; Cryptococcus neoformans; C. neoformans H99, RPMI medium, 37° C., 48 h, resazurin): < 10 µM | MIC80 [3, 6]: < 25 µM | MIC90 [3, 7]: 25 µM (≈ 11 µg/mL)

COc1cccc(-c2cc(Nc3cc(O)cc(O)c3C(=O)N3Cc4ccccc4C3)n(C)n2)c1 [Compound 112, 4-(2,3-Dihydro-1H-isoindole-2-carbonyl)-5-((3-(3-methoxyphenyl)-1-methyl-1H-pyrazol-5-yl)amino)benzene-1,3-diol]
C. alb Active (biochemical) [2]: Yes | Kd (C. neoformans Hsp90 NBD [4]): 74 nM | MIC80 [3, 8]: > 25 µM | MIC90 [3, 9]: > 25 µM | % remaining at 15 min (NADPH-free) [5]: 99.3% | % remaining at 15 min [5]: 3.7% | % remaining at 60 min [5]: 0% | CLint scaled at 1 μM (in vitro): 1740 mL/min/kg | half-life (in vitro): 3.2 min

COc1cccc(-c2cc(Nc3cc(O)cc(O)c3C(=O)N3Cc4cccnc4C3)n(C)n2)c1 [Compound 113, 5-((3-(3-Methoxyphenyl)-1-methyl-1H-pyrazol-5-yl)amino)-4-(5H,6H,7H-pyrrolo[3,4-b]pyridine-6-carbonyl)benzene-1,3-diol]
C. alb Active (biochemical) [2]: Yes | Kd (C. neoformans Hsp90 NBD [4]): 67 nM | MIC80 [3, 8]: > 25 µM | MIC90 [3, 9]: > 25 µM | % remaining at 15 min (NADPH-free) [5]: 109.2% | % remaining at 15 min [5]: 4.9% | % remaining at 60 min [5]: 0% | CLint scaled at 1 μM (in vitro): 1590 mL/min/kg | half-life (in vitro): 3.4 min

COc1cccc(-c2cc(Nc3cc(O)cc(O)c3C(=O)N3Cc4cn[nH]c4C3)n(C)n2)c1 [Compound 114, 5-((3-(3-Methoxyphenyl)-1-methyl-1H-pyrazol-5-yl)amino)-4-(1H,4H,5H,6H-pyrrolo[3,4-c]pyrazole-5-carbonyl)benzene-1,3-diol]
C. alb Active (biochemical) [2]: Yes | Kd (C. neoformans Hsp90 NBD [4]): 22 nM | MIC80 [3, 8]: > 25 µM | MIC90 [3, 9]: > 25 µM | % remaining at 15 min (NADPH-free) [5]: 108.2% | % remaining at 15 min [5]: 40.1% | % remaining at 60 min [5]: 7.0% | CLint scaled at 1 μM (in vitro): 318 mL/min/kg

Cn1nc(-c2ccc(C(C)(C)C)cc2)cc1Nc1cc(O)cc(O)c1C(=O)N1Cc2ccccc2C1 [Compound 127, 5-((3-(4-tert-Butylphenyl)-1-methyl-1H-pyrazol-5-yl)amino)-4-(2,3-dihydro-1H-isoindole-2-carbonyl)benzene-1,3-diol]
C. neoformans NBD ΔTm (C. neoformans Hsp90 NBD [1]): 0 °C

Cn1nc(-c2ccc(OC(F)(F)F)cc2)cc1Nc1cc(O)cc(O)c1C(=O)N1Cc2cccnc2C1 [Compound 131, 5-((1-Methyl-3-(4-(trifluoromethoxy)phenyl)-1H-pyrazol-5-yl)amino)-4-(5H,6H,7H-pyrrolo[3,4-b]pyridine-6-carbonyl)benzene-1,3-diol]
Kd (C. neoformans Hsp90 NBD [4]): 380 nM | MIC80 [3, 8]: > 25 µM | MIC90 [3, 9]: > 25 µM | C. neo Active (cells) ([3]; Yes/No call): No | % remaining at 15 min (NADPH-free) [5]: 104.1% | % remaining at 15 min [5]: 35.5% | % remaining at 60 min [5]: 3.9% | CLint scaled at 1 μM (in vitro): 387 mL/min/kg

Cn1nc(-c2ccc(OC(F)(F)F)cc2)cc1Nc1cc(O)cc(O)c1C(=O)N1Cc2cn[nH]c2C1 [Compound 132, 5-((1-Methyl-3-(4-(trifluoromethoxy)phenyl)-1H-pyrazol-5-yl)amino)-4-(1H,4H,5H,6H-pyrrolo[3,4-c]pyrazole-5-carbonyl)benzene-1,3-diol]
Kd (C. neoformans Hsp90 NBD [4]): 214 nM | MIC80 [3, 8]: > 25 µM | MIC90 [3, 9]: > 25 µM | C. neo Active (cells) ([3]; Yes/No call): No | % remaining at 15 min (NADPH-free) [5]: 71.7% | % remaining at 15 min [5]: 63.0% | % remaining at 60 min [5]: 20.6% | CLint scaled at 1 μM (in vitro): 176 mL/min/kg
